Reference: ChEMBL document CHEMBL1153744, “Diketopiperazines from the Cordyceps-colonizing fungus Epicoccum nigrum” (J Nat Prod, 2009)

What was measured:
[1] = test system: Human immunodeficiency virus 1; test: Inhibition of HIV1 viral replication infected in human C8166 cells assessed as suppression of virion-associated p24 antigen production after 4 days by ELISA; type: functional, organism-based; conditions: Human immunodeficiency virus 1, C8166, 96 h
[2] = Cytotoxicity against human […] cells after 4 days by MTT assay; type: cell-based

| SMILES | EC50 [1] [µM] | CC50 at 96 h [2] [µM] |
| --- | --- | --- |
| CS[C@@]12C[C@H]3C(=O)CC[C@H](O)[C@H]3N1C(=O)[C@]1(SC)C[C@H]3C(=O)CC[C@H](O)[C@H]3N1C2=O [EPICOCCIN G] | 13.5 | > 100 |
| CS[C@@]12C[C@H]3C(=O)C[C@H](O)[C@H](O)[C@H]3N1C(=O)[C@]1(SC)C[C@H]3C(=O)C[C@H](O)[C@H](O)[C@H]3N1C2=O [EPICOCCIN H] | 42.2 | > 100 |
| CN1C(=O)[C@H](Cc2ccccc2)NC(=O)/C1=C/c1ccccc1 [DIPHENYLALAZINE A] | 27.9 | > 100 |
